Where “and” joins values, the source holds several entries; their conditions need not be identical. Equal entries are not always repeated.
Columns and labels:
[1] = system: cats with FIC (Feline Idiopathic Cystitis); assay: VSOM in cats with Feline Idiopathic Cystitis; assay type: in vivo, cat; details: for VSOM treatment failure, number of cats / VSOM treatment failure, percent of cats: Day 28 vs Day 0
[2] = Plasma concentration of RTX (HPLC) after intravesical instillation in healthy cats; assay type: in vivo, cat
Method: To examine the effect of intravesical instillation of RTX on the bladder, 6 healthy cats, between the 2-5 years of age, were treated with either 5 (low dose), 25 (mid dose) or 50 mcg (high dose) of RTX (volume was 25 ml; concentrations were 0.2, 1, and 2 mcg/ml). These doses are considered equivalent to administration of 20, 100, or 200 mcg in a human with a volume of 100 ml. A seventh cat received saline only and served as the control. The bladders of the anesthetized cats were emptied and then flushed with sterile saline via a foley urinary catheter. Once the saline was removed, the treatment with RTX (test cats) or saline alone (control cat) was administered over 60 seconds and left in the bladder for 20 minutes.
The bladder of each cat was emptied and blood samples for pharmacokinetic analysis were collected pre-RTX treatment and at 0.5, 1, and 4 hours post RTX treatment.

[3] = 6.25 μg (0.25 μg/mL), Day 0, n 6
[4] = 6.25 μg (0.25 μg/mL), Day 28, n 6
[5] = 12.5 μg (0.5 μg/mL), Day 0, n 6
[6] = 12.5 μg (0.5 μg/mL), Day 28, n 5
[7] = 12.5 μg (1.25 μg/mL), Day 0, n 6
[8] = 12.5 μg (1.25 μg/mL), Day 28, n 6

With `C=C(C)[C@]12C[C@@H](C)[C@@]34O[C@](Cc5ccccc5)(O[C@@H]1[C@@H]3C=C(COC(=O)Cc1ccc(O)c(OC)c1)C[C@]1(O)C(=O)C(C)=C[C@@H]41)O2` [RTX, resiniferatoxin] as the molecule, how does the “VSOM, Maximum” value [1, 3] read?
Its value is 12.0.

And the “VSOM, Mean” value [1, 3]?
The value was 10.00.

What about the “VSOM, Median” value [1, 3] of the same molecule?
Its value is 10.00.

What about the “VSOM, Minimum” value [1, 3] of the same molecule?
Its value is 8.0.

What about the “VSOM, Maximum” value [1, 4] of the same molecule?
Its value is 10.0.

What about the “VSOM, Mean” value [1, 4] of the same molecule?
The value was 6.00.

What about the “VSOM, Median” value [1, 4] of the same molecule?
Its value is 6.50.

What about the “VSOM, Minimum” value [1, 4] of the same molecule?
The value was 1.0.

And the “VSOM, Maximum” value [1, 5]?
Its value is 12.0.

What about the “VSOM, Mean” value [1, 5] of the same molecule?
The value was 9.67.

What about the “VSOM, Median” value [1, 5] of the same molecule?
Its value is 9.50.

And the “VSOM, Minimum” value [1, 5]?
Its value is 8.0.

What about the “VSOM, Maximum” value [1, 6] of the same molecule?
The value was 4.0.

And the “VSOM, Mean” value [1, 6]?
The value was 1.60.

And the “VSOM, Median” value [1, 6]?
The value was 1.00.

What about the “VSOM, Minimum” value [1, 6] of the same molecule?
Its value is 0.0.

What about the “VSOM, Maximum” value [1, 7] of the same molecule?
Its value is 10.0.

What about the “VSOM, Mean” value [1, 7] of the same molecule?
Its value is 9.83.

What about the “VSOM, Median” value [1, 7] of the same molecule?
Its value is 10.00.

And the “VSOM, Minimum” value [1, 7]?
Its value is 9.0.

What about the “VSOM, Maximum” value [1, 8] of the same molecule?
The value was 6.0.

What about the “VSOM, Mean” value [1, 8] of the same molecule?
The value was 3.83.

And the “VSOM, Median” value [1, 8]?
The value was 4.00.

And the “VSOM, Minimum” value [1, 8]?
The value was 2.0.

And the “VSOM, Mean” value ([1]; 25 μg (1 μg/mL), Day 0, n 6)?
The value was 10.00.

What about the “VSOM, Median” value ([1]; 25 μg (1 μg/mL), Day 0, n 6) of the same molecule?
The value was 10.00.

And the “VSOM, Minimum” value ([1]; 25 μg (1 μg/mL), Day 0, n 6)?
The value was 9.0.

And the “VSOM, Maximum” value ([1]; 25 μg (1 μg/mL), Day 28, n 5)?
The value was 4.0.

What about the “VSOM, Mean” value ([1]; 25 μg (1 μg/mL), Day 28, n 5) of the same molecule?
Its value is 1.80.

What about the “VSOM, Median” value ([1]; 25 μg (1 μg/mL), Day 28, n 5) of the same molecule?
Its value is 1.00.

What about the “VSOM treatment failure, number of cats” value ([1]; Cohort 1 25 μg/25 mL) of the same molecule?
Its value is 0 n.

What about the “VSOM treatment failure, percent of cats” value ([1]; Cohort 1 25 μg/25 mL) of the same molecule?
Its value is 0.0%.

And the “VSOM treatment failure, number of cats” value ([1]; Cohort 2 6.25 μg/25 mL)?
Its value is 3 n.

And the “VSOM treatment failure, percent of cats” value ([1]; Cohort 2 6.25 μg/25 mL)?
Its value is 50.0%.

And the “VSOM treatment failure, number of cats” value ([1]; Cohort 3 12.5 μg/25 mL)?
The value was 0 n.

And the “VSOM treatment failure, percent of cats” value ([1]; Cohort 3 12.5 μg/25 mL)?
The value was 0.0%.

And the “VSOM treatment failure, number of cats” value ([1]; Cohort 4 12.5 μg/10 mL)?
Its value is 2 n.

What about the “VSOM treatment failure, percent of cats” value ([1]; Cohort 4 12.5 μg/10 mL) of the same molecule?
The value was 33.3%.

What about the “VSOM treatment failure, percent of cats” value ([1]; Overall (Cohorts 1-4)) of the same molecule?
Its value is “(22.8%)”.

What about the “Plasma concentration of RTX” value ([2]; 5 mcg total intravesical, 0 h, individual cats) of the same molecule?
Its value is “BQL (BQL = Below the Quantifiable Limit (<50.0 pg/mL).)”.

What about the “Plasma concentration of RTX” value ([2]; 5 mcg total intravesical, 0.5 h, individual cats) of the same molecule?
The value was “BQL (BQL = Below the Quantifiable Limit (<50.0 pg/mL).)”.

What about the “Plasma concentration of RTX” value ([2]; 5 mcg total intravesical, 1 h, individual cats) of the same molecule?
Its value is “BQL (BQL = Below the Quantifiable Limit (<50.0 pg/mL).)”.

And the “Plasma concentration of RTX” value ([2]; 5 mcg total intravesical, 4 h, individual cats)?
Its value is “BQL (BQL = Below the Quantifiable Limit (<50.0 pg/mL).)”.

And the “Plasma concentration of RTX” value ([2]; 25 mcg total intravesical, 0 h, individual cats)?
Its value is “BQL (BQL = Below the Quantifiable Limit (<50.0 pg/mL).)”.

And the “Plasma concentration of RTX” value ([2]; 25 mcg total intravesical, 0.5 h, individual cats)?
The value was 55.5 pg/ml and 10.1* pg/ml.

What about the “Plasma concentration of RTX” value ([2]; 25 mcg total intravesical, 1 h, individual cats) of the same molecule?
The value was “BQL (BQL = Below the Quantifiable Limit (<50.0 pg/mL).)”.

And the “Plasma concentration of RTX” value ([2]; 25 mcg total intravesical, 4 h, individual cats)?
Its value is “BQL (BQL = Below the Quantifiable Limit (<50.0 pg/mL).)”.

What about the “Plasma concentration of RTX” value ([2]; 50 mcg total intravesical, 0 h, individual cats) of the same molecule?
Its value is “BQL (BQL = Below the Quantifiable Limit (<50.0 pg/mL).)”.

What about the “Plasma concentration of RTX” value ([2]; 50 mcg total intravesical, 0.5 h, individual cats) of the same molecule?
Its value is “BQL (BQL = Below the Quantifiable Limit (<50.0 pg/mL).)”.

What about the “Plasma concentration of RTX” value ([2]; 50 mcg total intravesical, 1 h, individual cats) of the same molecule?
Its value is “BQL (BQL = Below the Quantifiable Limit (<50.0 pg/mL).)”.

What about the “Plasma concentration of RTX” value ([2]; 50 mcg total intravesical, 4 h, individual cats) of the same molecule?
The value was “BQL (BQL = Below the Quantifiable Limit (<50.0 pg/mL).)”.

And the “Plasma levels of RTX” value ([2]; all 3 groups, all time points (0, 0.5, 1, 4 h) except 0.5 h (25, 50 mcg) and 1 h (25 mcg))?
Its value is “below 50 pg/mL”.

And the RTX in plasma ([2]; all groups, 4 hours)?
The RTX in plasma was “below quantifiable levels”.

And the concentration at 1 h ([2]; cat, plasma, other: intravesical instillation, 25 mcg, 25 mcg total intravesical, 1 h, individual cats)?
Its concentration at 1 h is 0.0135 ng/mL.

And the concentration at 0.5 h ([2]; cat, plasma, other: intravesical instillation, 50 mcg, 50 mcg total intravesical, 0.5 h, individual cats)?
Its concentration at 0.5 h is 0.00877 ng/mL.

Reference: patent US20230270713A1, “Administration of Resiniferatoxin For Treatment of Bladder Pain or Bladder Cancer” (Sorrento Therapeutics, Inc., priority 2020, published 2023)
